Reference: patent US8329675B2, “Inhibitors of fatty acid amide hydrolase” (Infinity Pharmaceuticals, Inc., priority 2006, dated 2012)

Molecular target: T1, human FAAH (Homo sapiens, UniProt O00519)
T1 construct: host or cells: COS-7 cells, transient transfection; 13,000 g membrane fraction solubilised in 1% Triton X-100
T1 sequence (O00519 1-579): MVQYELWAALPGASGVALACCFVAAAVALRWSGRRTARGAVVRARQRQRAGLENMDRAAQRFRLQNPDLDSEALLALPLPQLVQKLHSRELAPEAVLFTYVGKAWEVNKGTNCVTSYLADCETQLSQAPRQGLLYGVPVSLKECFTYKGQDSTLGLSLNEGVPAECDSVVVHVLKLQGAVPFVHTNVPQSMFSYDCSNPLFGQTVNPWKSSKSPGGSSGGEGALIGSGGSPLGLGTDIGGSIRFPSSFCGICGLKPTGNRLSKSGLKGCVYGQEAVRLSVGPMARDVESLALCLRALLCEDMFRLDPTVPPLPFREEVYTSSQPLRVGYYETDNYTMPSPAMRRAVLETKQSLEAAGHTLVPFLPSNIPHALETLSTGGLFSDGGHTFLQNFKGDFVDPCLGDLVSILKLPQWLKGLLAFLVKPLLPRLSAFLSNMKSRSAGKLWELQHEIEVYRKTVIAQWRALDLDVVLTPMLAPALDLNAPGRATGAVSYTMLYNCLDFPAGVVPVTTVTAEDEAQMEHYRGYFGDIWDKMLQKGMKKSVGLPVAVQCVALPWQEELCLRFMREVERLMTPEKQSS
Assay: Human FAAH biochemical inhibition assay (AMC arachidonoyl amide fluorescence)
Details: Table 2, human FAAH (no asterisk); read-out: Activity (Ki)
In short: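 Solubilized membrane fraction from COS-7 cells transfected with human FAAH, used at a final 0.05 mg/ml in 50 mM Hepes pH 7.5, 1 mM EDTA, 0.2% Triton X-100. Inhibitor pre-incubated 30 min at room temperature; 20 uM final AMC arachidonoyl amide added, reaction run 4 h at room temperature, fluorescence read.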

SMILES	Ki [nM]
OB(O)c1ccc(OC[C@@H](COCc2ccccc2)OCc2ccccc2)cc1F [II-108]	10 to 100
OB(O)c1ccc(OCCc2cccnc2)cc1F [II-109]	< 10
CN(Cc1ccc(B(O)O)c2ccccc12)c1ccccc1 [II-112]	> 1000
OB(O)c1cccc(OCCc2ccccc2)c1 [II-113]	10 to 100
OB(O)c1cccc(Oc2ccccc2)c1 [II-114]	< 10
OB(O)c1cccc(OCCCc2ccccc2)c1 [II-115]	10 to 100
CCO/N=C(\c1ccccc1)c1ccc(B(O)O)cc1 [II-116]	10 to 100
OB(O)c1ccc(COc2cccc3ccccc23)cc1 [II-119]	< 10
OB(O)c1ccc(OCCCOc2ccccn2)cc1 [II-120]	10 to 100
O=c1ccccn1CCCOc1ccc(B(O)O)cc1 [II-122]	10 to 100
OB(O)c1ccc(COC2CCCc3ccccc32)cc1 (centres unmarked) [II-123]	10 to 100
OB(O)c1ccc(COC2CCc3ccccc32)cc1 (centres unmarked) [II-124]	< 10
Cn1ccc2cc(B(O)O)ccc21 [II-125]	> 1000
OB(O)c1ccc(COC2CCCCC2)cc1 [II-127]	< 10
OB(O)c1ccc(OCCCOc2ccccc2)cc1 [II-128]	< 10
OB(O)c1ccc(OCCOc2ccccc2)cc1 [II-129]	< 10
C/C(=N\OCc1ccccc1)c1ccc(B(O)O)cc1 [II-130]	< 10
CN(Cc1ccccc1)Cc1ccc(B(O)O)cc1 [II-131]	< 10
CC(C)(C)OC(=O)n1cncc1COc1ccc(B2OC(C)(C)C(C)(C)O2)c(F)c1 [II-133]	< 10
CC(Cc1ccccc1)Oc1ccc(B(O)O)c(F)c1 (centres unmarked) [II-136]	< 10
C[C@H](COc1ccc(B(O)O)c(F)c1)c1ccccc1 [II-137]	< 10
OB(O)c1ccc(OC2Cc3ccccc3C2)cc1F [II-138]	< 10

SMILES	Ki [nM]
C[C@@H](COc1ccc(B(O)O)c(F)c1)c1ccccc1 [II-139]	< 10
O=C(COc1ccc(B(O)O)c(F)c1)c1ccccc1 [II-140]	< 10
OB(O)c1ccc(Oc2cccnc2)cc1F [II-149]	< 10
CC1(C)OB(c2ccc(Oc3cccnc3)cc2F)OC1(C)C [II-150]	< 10
CC1(C)OB(c2ccc(Cn3ccc4ccccc43)cc2)OC1(C)C [II-153]	< 10
CC1(C)OB(c2ccc(CNc3ccccc3)cc2)OC1(C)C [II-154]	< 10
O=C(c1ccc(B(O)O)cc1)N(Cc1ccccc1)c1ccccc1 [II-155]	10 to 100
OB(O)c1ccc(CN(Cc2ccccc2)Cc2ccccc2)cc1 [II-157]	10 to 1000
OB(O)c1ccc(OCc2cncs2)cc1F [II-159]	10 to 100
CC1(C)OB(c2ccc(OCc3cccnc3)cc2F)OC1(C)C [II-161]	10 to 100
CN(Cc1ccccc1)C(=O)c1ccc(B(O)O)cc1 [II-163]	10 to 100
O=C(c1ccc(B(O)O)cc1)N1CCCCC1 [II-164]	10 to 100
CC1(C)OB(c2ccc(OCCCCc3ccccc3)cc2)OC1(C)C [II-166]	10 to 100
OB(O)c1ccc(OCCc2ccccc2)cc1 [II-167]	< 10
CC1(C)OB(c2ccc(OCCCc3ccccc3)cc2)OC1(C)C [II-170]	10 to 100
C[C@@H](NC(=O)c1ccc(B(O)O)cc1)c1ccccc1 [II-171]	10 to 100
CN(C)c1cc(Oc2ccc(B(O)O)cc2)cc(Oc2cccc3ccccc23)c1 [II-173]	> 1000
CC1(C)OB(c2ccc(OCc3ccccn3)cc2F)OC1(C)C [II-176]	< 10
OB(O)c1ccc(OCc2ccncc2)cc1F [II-177]	10 to 100
CC1(C)OB(c2ccc(CN(Cc3ccccc3)Cc3ccccc3)cc2)OC1(C)C [II-178]	> 1000
CN(C)c1cc(Oc2ccc(B(O)O)cc2)cc(Oc2cccc(F)c2)c1 [II-180]	> 1000
CN(C)c1cc(Oc2ccc(Cl)cc2)cc(Oc2ccc(B(O)O)cc2)c1 [II-181]	10 to 1000

SMILES	Ki [nM]
CN(C)c1ccc(/N=N/c2ccc(B(O)O)cc2)cc1 [II-182]	10 to 100
c1ccc(-c2ccc(B3CCCO3)cc2)cc1 [II-184]	10 to 100
CN(C)c1ccc(/N=N/c2ccc(B3OC(C)(C)C(C)(C)O3)cc2)cc1 [II-185]	10 to 1000
c1ccc(B2CCCO2)cc1 [II-186]	> 1000
Cc1cc(NCc2ccc(B3OC(C)(C)C(C)(C)O3)cc2)ccc1F [II-187]	10 to 100
OB(O)c1ccc(Oc2cccc(Oc3cccc4ccccc34)c2)cc1 [II-190]	10 to 100
OB(O)c1ccc(Oc2cccc(Oc3ccc(Cl)cc3)c2)cc1 [II-191]	< 10
OB(O)c1ccc(Oc2cccc(F)c2)c(F)c1F [II-194]	< 10
OB(O)c1c(F)cc(Oc2cccc(F)c2)cc1F [II-195]	< 10
OB(O)c1ccc(Oc2cccc(N3CCCCC3)c2)cc1F [II-196]	> 1000
OB(O)c1ccc(Oc2cccc(N3CCCC3)c2)cc1F [II-197]	10 to 100
OB(O)c1cc(F)c(Oc2cccc(F)c2)c(F)c1 [II-198]	< 10
Cc1cc(CSc2ccc(B(O)O)c(F)c2)ccc1F [II-199]	< 10
CNc1cccc(Oc2ccc(B(O)O)c(F)c2)c1 [II-200]	< 10
CN(C)c1cccc(Oc2ccc(B(O)O)c(F)c2)c1 [II-201]	10 to 100
OB(O)c1ccc(Oc2cccc(F)c2)cc1C(F)(F)F [II-202]	10 to 100
N#Cc1cc(Oc2cccc(F)c2)ccc1B(O)O [II-203]	< 10
CN(C)c1cccc(Oc2ccc(B(O)O)cc2F)c1 [II-205]	< 10
COc1cccc(Oc2ccc(B(O)O)c(F)c2)c1 [II-206]	< 10
OB(O)c1ccc(Oc2cccc(F)c2)cc1Cl [II-207]	< 10
Cc1cc(Oc2cccc(F)c2)ccc1B(O)O [II-209]	10 to 100

The next lines start with the values.

Ki [nM]	SMILES
10 to 100	CC(C)(C)OC(=O)N1CCC[C@H]1COCc1ccc(B(O)O)cc1 [II-107]
< 10	OB(O)c1ccc(OCCc2ccncc2)cc1F [II-110]
< 10	OB(O)c1ccc(COCc2cccc3ccccc23)cc1 [II-111]
10 to 100	OB(O)c1ccc(CCOc2ccccc2)cc1 [II-117]
> 1000	OB(O)c1ccc(CNc2cccc3ccccc23)cc1 [II-118]
10 to 100	OB(O)c1cccc(CCOc2ccccc2)c1 [II-121]
< 10	CC(OCc1ccc(B(O)O)cc1)c1ccccc1 (centres unmarked) [II-126]
< 10	OB(O)c1ccc(COCc2ccccc2)cc1 [II-132]
10 to 100	OB(O)c1ccc(OCc2ccn[nH]2)cc1F [II-134]
10 to 100	OB(O)c1ccc(OCc2cnco2)cc1F [II-135]
< 10	CN(Cc1ccc(B(O)O)cc1)c1ccccc1 [II-141]
< 10	OB(O)c1ccc(CN2CCc3ccccc32)cc1 [II-142]
< 10	OB(O)c1ccc(CN2CCCc3ccccc32)cc1 [II-143]
10 to 100	O=C1c2ccc(B(O)O)cc2C(=O)N1c1ccccc1 [II-144]
< 10	OB(O)c1ccc(Cn2ccc3ccccc32)cc1 [II-145]
< 10	Cc1cc(COc2ccc(B(O)O)c(F)c2)ccc1F [II-146]
10 to 100	CC1(C)OB(c2ccc(OCc3ccn[nH]3)cc2F)OC1(C)C [II-147]
10 to 100	CC1(C)OB(c2ccc(OCc3cnco3)cc2F)OC1(C)C [II-148]
10 to 1000	O=C(OCc1ccccc1)c1cc(Oc2cccc(F)c2)ccc1B(O)O [II-151]
< 10	OB(O)c1ccc(CNc2ccccc2)cc1 [II-152]

Ki [nM]	SMILES
< 10	OB(O)c1ccc(OCCCc2ccccc2)cc1F [II-156]
> 1000	OB(O)c1ccc(CN(c2ccccc2)c2ccccc2)cc1 [II-158]
10 to 100	OB(O)c1ccc(OCc2cccnc2)cc1F [II-160]
> 1000	Nc1cc(Oc2cccc(F)c2)ccc1B(O)O [II-162]
10 to 100	OB(O)c1ccc(OCCCCc2ccccc2)cc1 [II-165]
10 to 100	CC1(C)OB(c2ccc(OCCc3ccccc3)cc2)OC1(C)C [II-168]
< 10	OB(O)c1ccc(OCCCc2ccccc2)cc1 [II-169]
10 to 100	C[C@H](NC(=O)c1ccc(B(O)O)cc1)c1ccccc1 [II-172]
< 10	CC1(C)OB(c2ccc(OCc3cncs3)cc2F)OC1(C)C [II-174]
> 1000	OB(O)c1ccc(OCc2ccccn2)cc1F [II-175]
10 to 100	CC1(C)OB(c2ccc(OCc3ccncc3)cc2F)OC1(C)C [II-179]
10 to 100	COC(=O)c1cc(Oc2cccc(F)c2)ccc1B(O)O [II-183]
> 1000	Cc1cc(CNc2ccc(B3OC(C)(C)C(C)(C)O3)cc2)ccc1F [II-188]
> 1000	OB(O)c1ccc(/C=C\c2ccccc2)cc1 [II-189]
10 to 100	COc1ccc(Oc2cc(Oc3ccc(B(O)O)cc3)cc(N(C)C)c2)cc1 [II-192]
< 10	COc1ccc(Oc2cccc(Oc3ccc(B(O)O)cc3)c2)cc1 [II-193]
< 10	COc1cc(Oc2cccc(F)c2)ccc1B(O)O [II-204]
10 to 100	Cc1cc(-c2cccc(F)c2)ccc1B(O)O [II-208]
< 10	OB(O)c1ccc(Oc2ccc(F)c(F)c2)cc1F [II-210]
